For one series, the target named is D2 receptor (Homo sapiens (Human), UniProt P14416). The series can be described thus: D2 radioligand binding assay.
The target of series [1] is T1, human D2R/β-arrestin (Homo sapiens (Human), UniProt P14416). Kind of series: β-arrestin agonist assay (PathHunter). It counts as cell-based. The conditions noted are these: CHO-K1 cells expressing human D2R/β-arrestin; agonist mode. The protocol:
The detection reagent (9.6 μL, Buffer:Emerald II:Galactor-Star in a 19:5:1 ratio, i.e., 14.06 mL:3.7 mL:0.74 mL=18.5 mL) was then added to the agonist plates.

Series [2] deals with T1, human D2R/β-arrestin. The series can be described thus: Gi/cAMP agonist assay (Lance Ultra cAMP, forskolin). It is filed as cell-based. The conditions noted are these: CHO-K1 cells expressing human D2R/β-arrestin; agonist mode, 2.5 μM forskolin. The protocol: Eu-cAMP tracer solution (10 μl, PerkinElmer, 360 μl of Tracer in 17.64 ml kit buffer) and ULight-anti-cAMP solution (10 μl, 120 μL antibody in 17.88 ml kit buffer) was then added to each well.

The next series in a line: Brain protein binding. It counts as in vitro ADME.
In a further series the test system is striatal D2/D3. Kind of series: Positron emission tomography with [11C]raclopride. It counts as in vivo, Male Sprague-Dawley rats. The note with it: scans 1 hour after administration; in comparison with clozapine. The protocol:
Positron Emission Tomography Studies on Rodents
All animal procedures were performed in accordance with the National Institutes of Health Guide for the Care and Use of Laboratory Animals and were approved by the Massachusetts General Hospital Institutional Animal Care and Use Facility. Male Sprague-Dawley rats (8-14 weeks old, Charles River Labs) were used for the study with animals pair-housed on a diurnal 12:12 light/dark cycle with free access to food and water. […] Respiration of each animal was monitored for the duration of the procedure.
Carbon 11-labeled raclopride ([^11C]RAC) was synthesized from the O-desmethyl RAC precursor and [11C] methyl iodide and subsequently purified by high-performance liquid chromatography as previously described (Farde L, et al. (1985) PNAS, USA 82(11):3863-3867). […] ROI dimensions, placement and striatal D2/D3 binding potential (BPND) were evaluated by graphical analysis using Logan distribution volume ratio (DVR) linearization as previously described (BPND.=DVR-1; Alexoff D, et al. (2002) J Nuc Med 44(5): 815-822; Logan J, et al. (1996) J Cerebral Blood Flow and Metabolism 16(5):[…]).

Another series relates to mice. The series can be described thus: Rotarod performance. It counts as in vivo. The note with it: 30 mg/kg IP in mice. How it is done: In the test, mice are placed on a horizontally oriented, rotating cylinder (rod) suspended above a cage floor, which is low enough not to injure the animal, but high enough to induce avoidance of fall. The mice naturally try to stay on the rotating cylinder, or rotarod, and avoid falling to the ground. Mice are administered clozaril at 3 mg/kg (test group); or a compound of Formula (I) (either 10 mg/kg or 30 mg/kg or vehicle). The mice have an average weight of 20 grams (as do the mice in all examples herein). The length of time that a given animal stays on this rotating rod is a measure of the animal's balance, coordination, physical condition, and motor-planning. The speed of the rotarod is mechanically driven, and is held constant.
For orientation: The rotarod test checks motor coordination on a turning rod.

Series [3] concerns D2R-mediated GSK3 signaling. The series can be described thus: D2R-mediated GSK3 signaling in HEK293T cells. It is filed as cell-based. The note with it: HEK293T cells expressing both D2R and DISC1; 10 μM and 30 μM. An excerpt: Example 90 blocks β-arrestin signaling downstream of D2R and leads to modulation of GSK3 signaling.
Series [4] deals with T1, human D2R/β-arrestin. The series can be described thus: cell-based. The note with it: cAMP Antagonist, CHO-K1 cells expressing human D2R/β-arrestin; antagonist mode, 2.5 μM forskolin and 2.7 nM quinpirole.

In general, Ki refers to a measure of affinity in units of concentration, obtained from inhibition or displacement. As a reminder, the EC50 is the concentration needed to bring the measured effect to its halfway point. A low value points to a more potent agent. For orientation: fraction unbound means free concentration divided by total concentration. In general, IC50 refers to the concentration that inhibits the measured activity by half.

T1 sequence (P14416 whole entry): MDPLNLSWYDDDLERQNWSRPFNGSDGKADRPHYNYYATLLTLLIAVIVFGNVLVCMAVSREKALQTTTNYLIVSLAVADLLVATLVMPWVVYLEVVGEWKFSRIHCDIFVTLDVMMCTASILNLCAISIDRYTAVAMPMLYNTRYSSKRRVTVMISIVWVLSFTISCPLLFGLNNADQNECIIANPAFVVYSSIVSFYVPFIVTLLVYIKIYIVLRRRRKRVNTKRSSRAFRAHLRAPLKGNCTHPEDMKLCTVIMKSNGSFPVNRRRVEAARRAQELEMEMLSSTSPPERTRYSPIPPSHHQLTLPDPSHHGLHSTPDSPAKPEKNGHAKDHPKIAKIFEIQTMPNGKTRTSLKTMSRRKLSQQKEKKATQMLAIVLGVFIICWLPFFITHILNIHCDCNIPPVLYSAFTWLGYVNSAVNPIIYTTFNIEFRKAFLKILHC
Chain of D2 receptor (P14416 whole entry): as above

Take `CC1(Oc2ccc(Cl)cc2)CCN(CCOc2ccccc2C(F)(F)F)CC1` [Compound 90, 4-(4-Chlorophenoxy)-4-methyl-1-(2-(2-(trifluoromethyl)phenoxy)ethyl) piperidine]: the Ki on D2 receptor was in the range of 100 to 1000 nM. Further, the values for the concentration giving a half-maximal response (EC50) at human D2R/β-arrestin [1] and on human D2R/β-arrestin [2] were 1000 to 10000 nM and under 100 nM, respectively. This molecule showed a fraction unbound in “Brain protein binding” of under 0.001. Besides, the “occupancy in the striatum ([11C]Raclopride PET)” value in the series with striatal D2/D3 is “continued high occupancy in the striatum”. Moreover, in the series on mice, the “motoric side effects (rotarod performance)” value is given as “does not induce motoric side effects”. The “block of D2R activation-induced reduction of GSK3-α/β (Ser 21/9) phosphorylation” value in series [3] is recorded as “blocked”. The molecule also displayed an IC50 on human D2R/β-arrestin [4] of over 30000 nM.

For the origin of these results see patent US11498896B2 (The Broad Institute, Inc., priority 2014, dated 2022).
